Structures are written as SMILES.

In turn, `C1CSCSC1` gave a melting point of 54 °C.
The value for `CC1=CC=C(C(C)C)CC1` was -31.1 °C; that for `CC(=O)CC(c1ccc([N+](=O)[O-])cc1)c1c(O)oc2ccccc2c1=O` (stereo not drawn) was 197 °C.
The value for `CCc1ccc([N+](=O)[O-])cc1` was -12 °C; that for `COCCOc1cnc(NS(=O)(=O)c2ccccc2)nc1` was 152 °C.
In the case of `O=C1C(=O)C(Cl)=C(Cl)C(Cl)=C1Cl` it was 125 to 129 °C.
`CC(C)(C)C(=O)CC(=O)C(F)(F)C(F)(F)C(F)(F)F`: the melting point turned out to be 38 °C.
The value for `O=[N+]([O-])c1cccnc1Oc1ccc(F)cc1F` was 63 to 65 °C; that for `COC(OC)c1ccc(C#N)c(S)n1` was 137 to 139 °C.
The value for `CC(C)c1cc(C(C)C)c(S(=O)(=O)n2cncn2)c(C(C)C)c1` was 111 °C; that for `O=C1c2ccccc2C(=O)N1Cl` was 185 to 189 °C.
In the case of `CC(C)(C)OC(=O)NC(Cc1cccs1)C(=O)O` (stereo not drawn) it was 71 to 76 °C; in that of `COC(=O)c1scc(S(=O)(=O)C(C)C)c1N`, 139 to 143 °C; in that of `CCCSc1nnc(S)s1`, 145 to 147 °C.
`Cc1cc(Sc2nnc(N)s2)c2ccccc2n1` registered a melting point of 197 to 200 °C.
The value for `CC(C)(C)[Si](C)(C)N1C(=O)C[C@@H]1C(=O)O` was 137 to 141 °C.
The value for `COc1ccc(-c2cc(-c3ccc(OC)cc3)cc(-c3ccc(OC)cc3)c2)cc1` was 143 to 146 °C; that for `FC(F)CBr` was -75 °C; that for `CNC=O` was -3.2 °C.
In turn, `Clc1ccc2ccccc2c1Cl` registered a melting point of 36 °C.
In the case of `CSc1ncccc1-c1nc(CCl)no1` it was 110 to 111 °C; in that of `CCOC(=O)c1[nH]c(C)c(S(=O)(=O)Cl)c1C`, 150 °C; in that of `O=C1CCc2cc(Br)ccc2C1`, 70 to 76 °C.
The value for `IC12CC3CC(CC(C3)C1)C2` was 75.5 °C.
On to `CC(=O)Nc1ccc(-c2ccc(F)cc2)cc1`, for which the melting point fell in the range of 205 to 207 °C.
The value for `CCC(Cc1c(I)cc(I)c(N)c1I)C(=O)O` (stereo not drawn) was 155 °C.
In the case of `COC(=O)c1c(Cl)nn(C)c1S(=O)(=O)NC(=O)Nc1nc(OC)cc(OC)n1` it was 176 °C.
The value for `Nc1cc(C(F)(F)F)c(F)cc1Br` was 27 °C.
`CCOC(=O)COc1ccc2c(=O)cc(-c3ccccc3)oc2c1` registered a melting point of 124 °C.
In the case of `Cn1c2ccccc2c2cc([N+](=O)[O-])ccc21` it was 172 to 174 °C; in that of `NC(=O)C#CC#CC#CCO`, 140 °C; in that of `CCCc1nc(OC(C)=O)n(-c2ccccc2)n1`, 84 °C.
For `NNC(=O)C(=O)NN`, the melting point is 239 to 243 °C.
Molecule `CCc1cc(C)cc(O)c1` gave a melting point of 51.6 °C.
The value for `CNc1c(C=O)c(=O)oc2ccccc12` was 215 to 216 °C; that for `O=Cc1ccccc1-c1cccnc1` was 68 to 69 °C.
The value for `O=c1[nH]c2ccc(S(=O)(=O)CCO)cc2o1` was 207 to 211 °C.
In the case of `CC(=O)Nc1nccs1` it was 204 to 208 °C.
Take `CCOC(=O)c1sc(C2CCN(C(=O)OC(C)(C)C)CC2)nc1C`: the melting point is 47 °C.
The value for `C=C(C)C1CC=C(C(=O)O)CC1` (stereo not drawn) was 129 to 135 °C; that for `CCOC(=O)c1cnc(SC)nc1Cl` was 62 °C; that for `CC(C)(C)OC(=O)CN=C(c1ccccc1)c1ccccc1` was 114 °C.
As to `CC(=O)Oc1c(C)c(C)c2c(c1C)CCC(C)(CCCC(C)CCCC(C)CCCC(C)C)O2` (stereo not drawn), the melting point is -28 °C.
In the case of `CC(=O)N1CC(c2ccccc2)C=C1c1ccccc1` (stereo not drawn) it was 105 °C.
As to `CCC(=O)OC(C)c1ccccc1` (stereo not drawn), the melting point was -60 °C.
In the case of `O=C(O)C1OC(C(=O)O)C(C(=O)O)C1C(=O)O` (stereo not drawn) it was 205 to 210 °C.
In the case of `O=P(c1ccccc1)(c1ccccc1)C1C=C(c2ccccc2)C=C(c2ccccc2)O1` (stereo not drawn) it was 151 to 152 °C; in that of `O=C1C=CC(=O)N1c1cccc(N2C(=O)C=CC2=O)c1`, 198 to 204 °C; in that of `O=C(/C=C/c1ccc(-c2ccc([N+](=O)[O-])cc2)o1)c1ccco1`, 187 °C.
The value for `CC(C)(C)OC(=O)NC(Cc1ccc(Br)s1)C(=O)O` (stereo not drawn) was 70.3 °C; that for `CC=C(c1ccccc1)c1ccccc1` was 49 °C; that for `N#CC1CC2CCC1C2` (stereo not drawn) was 44 °C.
In turn, `CC(C)(C)S(=O)(=O)c1cnc(N2CCCC2)nc1N` gave a melting point of 199 to 201 °C.
The molecule `O=C(CCl)Nc1ccc(Br)cc1` gave a melting point of 136 to 137 °C.
In the case of `C[Si](C)(C)C=C[Si](C)(C)C`, the melting point is -18.5 °C.
The molecule `CC1CCC(C(C)C)C(OC(=O)C(=Cc2ccccc2)C(=O)c2ccccc2)C1` (stereo not drawn) returned a melting point of 65 °C.
In the case of `COC(=O)c1cc([N+](=O)[O-])cc([N+](=O)[O-])c1` it was 110 °C; in that of `OCCC(F)(F)C(F)(F)C(F)(F)C(F)(F)C(F)(F)C(F)(F)F`, -35 °C; in that of `CC(C)C=C1NC(c2ccccc2)OC1=O` (stereo not drawn), 87 °C.
In the case of `CC12CCC(CC/C1=N\Nc1ccc([N+](=O)[O-])cc1[N+](=O)[O-])C2(C)C` (stereo not drawn) it was 232 to 233 °C; in that of `OCc1ccc(-c2ncccn2)cc1`, 76.5 to 77.5 °C; in that of `Oc1ccc(-c2ccccc2)cc1Cl`, 77 °C.
Regarding `C#CC1(O)CCC2C3CCC4CCCCC4(C)C3CCC21C` (stereo not drawn), the melting point stood at 155 °C.
`CCOc1cc(C=O)ccc1OC` came in with a melting point of 52 °C.
In the case of `Cc1ccc(N/N=C(/C(=O)c2cccc3ccccc23)S(=O)(=O)c2ccccc2)cc1` it was 108 to 110 °C; in that of `c1ccc(CN2CCCNCCN(Cc3ccccc3)CCCNCC2)cc1`, 68 °C.
Take `Cc1cc(C)c(CC(=O)c2oc3ccccc3c2NC(=O)Cc2ccccc2)c(C)c1`: the melting point fell in the range of 156 to 157 °C.
The value for `O=C1OC(c2ccccc2)=NC1=Cc1cc([N+](=O)[O-])ccc1O` was 231 to 232 °C; that for `CC(C)(C)OC(=O)NCCNc1ccc(C(F)(F)F)cc1N` was 129 to 132 °C.
The value for `Cc1ccc(-c2ccccc2)s1` was 47.5 °C; that for `OC12CCCC1c1ccccc12` (stereo not drawn) was 66 °C.
The value for `CCOC(=O)Cc1c(C(=O)OCC)[nH]c(C)c1C(=O)OCc1ccccc1` was 110 to 112 °C; that for `O=C(O)C1CCC(C(F)(F)F)CC1` (stereo not drawn) was 63 to 65 °C; that for `C#CCCCCCC` was -60 °C.
Take `c1ccc(-c2ccncn2)cc1`: the melting point came out at 56 °C.
In the case of `CC(C)N=c1cc2n(-c3ccc(Cl)cc3)c3ccccc3nc-2cc1Nc1ccc(Cl)cc1` it was 211 °C; in that of `N#Cc1ccc(-c2ccco2)cc1`, 66 to 67 °C; in that of `CCCOC(N)=O`, 60 °C.

The term melting point denotes the temperature of the solid-liquid transition.

Values taken from a melting point compilation (Tetko et al.).
